Data reported in EPA's ToxValDB 9.5.
Converted amounts (≈) assume the structure as drawn. “And” between values parts separate entries of the source, which are not always exact repeats. Equal values may be shown once.

Assays:
Oryctolagus sp. = settings: acute; dermal; occlusive; New Zealand
Rattus norvegicus [1] = tested on: Rattus norvegicus
Rattus norvegicus [2] = assay: LC100; higher = less toxic; settings: acute; inhalation; Sprague-Dawley
Cavia porcellus = settings: uterotrophic; duration: 12 days; injection; subcutaneous; Guinea Pig; Active
Rattus norvegicus [3] = settings: oral, gavage
Sus scrofa = settings: repeat dose other; oral; diet; M/F; Not specified; Renal proximal tubule degeneration & interstitial nephropathy
Rattus norvegicus [4] = settings: dietary / carcinogenicity; duration: 2 years; oral; feed; M/F; Hepatocellular lipid vacuolation
Rattus norvegicus [5] = assay: LD10; higher = less toxic; settings: acute; inhalation
Mus musculus = settings: acute; oral; gavage
[6] = short-term, duration: 18 days, inhalation, Sprague-Dawley
[7] = short-term, duration: 28 days, M, Sprague-Dawley, Clinical Observation: Salivation increase + Blood Chemistry: AST increase, T-Cho decrease, CRE increase, TP increase, ALB increase, GLUC …

Structure (SMILES): CCC#N [Propionitrile]
- LD50 (Oryctolagus sp.): 90 mg/kg and 40 mg/kg and 56 mg/kg
- LC50 (Rattus norvegicus [1]; acute, inhalation, Sprague-Dawley): 3.3 µg/mL (≈ 59.9 µM)
- NOAEL (Rattus norvegicus [1]; developmental, duration: 6 days, oral, gavage, Sprague-Dawley): 40 mg/kg-day
- NOAEL (Rattus norvegicus [1]; reproduction developmental, duration: 14 weeks, inhalation, Sprague-Dawley): > 471 mg/m3
- NOAEL (Rattus norvegicus [1]; reproduction developmental, duration: 46 days, inhalation, Sprague-Dawley, generation: F0): 135 mg/m3
- NOAEL (Rattus norvegicus [1]; reproduction developmental, duration: 46 days, inhalation, Sprague-Dawley, generation: F1): 473 mg/m3
- LOAEL (Rattus norvegicus [1]; [6]): 741 mg/m3
- NOAEL (Rattus norvegicus [1]; [6]): 259 mg/m3
- LC100 (Rattus norvegicus [2]): 90.3 mg/L

Structure (SMILES): CC/C(=C(\c1ccccc1)c1ccc(OCCN(C)C)cc1)c1ccccc1 [Tamoxifen]
- LEL (Cavia porcellus): 0.1 mg/day

Structure (SMILES): C[C@@H]1Cc2c(Cl)cc(C(=O)N[C@@H](Cc3ccccc3)C(=O)O)c(O)c2C(=O)O1 [Ochratoxin A]
- NOAEL (Rattus norvegicus [3]; [7]): < 0.2 mg/kg-day
- NOEL (Rattus norvegicus [3]; [7]): < 0.2 mg/kg-day
- NOEL (Rattus norvegicus [3]; subchronic, duration: 13 weeks, M/F, Fischer 344, Body Weight Changes: decrease + Relative Organ Weight: Right kidney decrease + Histopathology: Kidney-Karyomegaly Kidney-Atrophy Kidney/…): < 0.0625 mg/kg-day
- LOEL (Sus scrofa): 0.008 mg/kg-day

Structure (SMILES): COC(=O)Nc1nc2ccc(S(=O)c3ccccc3)cc2[nH]1 (stereo not drawn) [Oxfendazole]
- NOEL (Rattus norvegicus [4]): 0.7 mg/kg-day

Structure (SMILES): C=C1CC(=O)O1 [Diketene]
- LD10 (Rattus norvegicus [5]): 1270 mg/m3 and ≥ 1190 mg/m3 and ≤ 1410 mg/m3
- LD50 (Rattus norvegicus [1]; acute, oral, gavage): ≥ 400 mg/kg and ≤ 800 mg/kg
- LD50 (Mus musculus): ≥ 800 mg/kg and ≤ 1600 mg/kg
